Values quoted from earlier work in patent US10525009B2, “Formulations of 6-mercaptopurine” (Hadasit Medical Research Services and Development Ltd., priority 2004, dated 2020).

Compound: Sc1ncnc2nc[nH]c12 [6-MP, 6-mercaptopurine]
- fraction of an oral dose absorbed: Approximately 50%
